# Reference: patent US20240376114A1, “NUCLEAR TRANSPORT MODULATORS AND USES THEREOF” (Karyopharm Therapeutics Inc., priority 2011, published 2024)
# Assay: CellTiter 96 AQueous One Solution (MTS) cell proliferation assay
# Type: cell-based
# Conditions: human, MM.1S multiple myeloma cells; MM.1S cells, 72 h treatment; read-out: Cytotoxicity [EC50]
# From the text: The CellTiter 96® AQueous One Solution cell proliferation assay (Promega) was used on MM.1S multiple myeloma cell line to study the cytotoxic and cytostatic properties of the compounds. The assay is based on the cleavage of the tetrazolium salt, MTS, in the presence of an electron-coupling reagent PES (phenazine ethosulfate). The MTS tetrazolium compound is bioreduced by cells into a colored formazan product that is soluble in tissue culture medium. This conversion is presumably accomplished by NADPH or NADH produced by dehydrogenase enzymes in metabolically active cells. Assays are performed by adding a small amount of the CellTiter 96® AQueous One solution reagent directly to culture wells, incubating for 1-4 hours and then recording the absorbance at 490 nm with a 96-well plate reader.
# The cells were seeded at 5×10^3 to 1.5×10^4 cells (depending on cell type) in each well of a 96-well plate in 100 μL of fresh culture medium and adherent cells were allowed to attach overnight. The stock solutions of the compounds were diluted in cell culture medium to obtain eight concentrations of each drug, ranging from 1 nM to 30 μM and DMSO at less than 1% v/v was used as a negative control. The resulting drug solutions were transferred onto the cells. After 72 h of treatment, 20 μl of CellTiter 96® AQueous reagent was added into each well of the 96-well assay plates and the plate was incubated at 37° C. for 1-4 hours in a humidified, 5% CO2 atmosphere. Then the absorbance of each well was recorded at 490 nm using a 96-well plate reader. In most cases, the assay was performed in triplicate and the results were presented as half maximal inhibitory concentration (IC50). Optical density versus compound concentration was plotted and analyzed using non-linear regression equations (IDBS XLfit) and the IC50 for each compound was calculated.
row,SMILES,EC50 at 72 h
1,"O=C(/C=C\n1cnc(-c2cc(C(F)(F)F)cc(C(F)(F)F)c2)n1)N1CCCC(F)(F)C1 [Example 5, (Z)-3-(3-(3,5-bis(trifluoromethyl)phenyl)-1H-1,2,4-triazol-1-yl)-1-(3,3-difluoropiperidin-1-yl)prop-2-en-1-one]",1000 to 10000 nM
2,"O=C(/C=C\n1cnc(-c2cc(C(F)(F)F)cc(C(F)(F)F)c2)n1)NCc1cncnc1 [Compound 14, (Z)-3-(3-(3,5-bis(trifluoromethyl)phenyl)-1H-1,2,4-triazol-1-yl)-N-(pyrimidin-5-ylmethyl)acrylamide]",< 1000 nM
3,"CN(C)CC1(F)CN(C(=O)/C=C\n2cnc(-c3cc(C(F)(F)F)cc(C(F)(F)F)c3)n2)C1 [Compound 63, (Z)-3-(3-(3,5-bis(trifluoromethyl)phenyl)-1H-1,2,4-triazol-1-yl)-1-(3-((dimethylamino)methyl)-3-fluoroazetidin-1-yl)prop-2-en-1-one]",< 1000 nM
4,"O=C(/C=C\c1n[nH]c(-c2cc(C(F)(F)F)cc(C(F)(F)F)c2)n1)N1CC(F)(F)C1 [Compound 12, (Z)-3-(5-(3,5-bis(trifluoromethyl)phenyl)-4H-1,2,4-triazol-3-yl)-1-(3,3-difluoroazetidin-1-yl)prop-2-en-1-one]",1000 to 10000 nM
5,"CN1CCCC(CNC(=O)/C=C\n2cnc(-c3cc(C(F)(F)F)cc(C(F)(F)F)c3)n2)C1 (centres unmarked) [Compound 27, (Z)-3-(3-(3,5-bis(trifluoromethyl)phenyl)-1H-1,2,4-triazol-1-yl)-N-((1-methylpiperidin-3-yl)methyl)acrylamide]",< 1000 nM
6,"O=C(/C=C\n1cnc(-c2cc(C(F)(F)F)cc(C(F)(F)F)c2)n1)N1CCC(F)(F)C1 [Compound 20, (Z)-3-(3-(3,5-bis(trifluoromethyl)phenyl)-1H-1,2,4-triazol-1-yl)-1-(3,3-difluoropyrrolidin-1-yl)prop-2-en-1-one]",< 1000 nM
7,"CCN(C(=O)/C=C\n1cnc(-c2cc(C(F)(F)F)cc(C(F)(F)F)c2)n1)C(C)c1cccnc1 (centres unmarked) [Example 10, (Z)-3-(3-(3,5-bis(trifluoromethyl)phenyl)-1H-1,2,4-triazol-1-yl)-N-ethyl-N-(1-(pyridin-3-yl)ethyl)acrylamide]",1000 to 10000 nM
8,"N#CC1CN(C(=O)/C=C\n2cnc(-c3cc(C(F)(F)F)cc(C(F)(F)F)c3)n2)C1 [Compound 54, (Z)-1-(3-(3-(3,5-bis(trifluoromethyl)phenyl)-1H-1,2,4-triazol-1-yl)acryloyl)azetidine-3-carbonitrile]",< 1000 nM
9,"Cc1ncc(CNC(=O)/C=C\n2cnc(-c3cc(C(F)(F)F)cc(C(F)(F)F)c3)n2)c(C)n1 [Compound 31, (Z)-3-(3-(3,5-bis(trifluoromethyl)phenyl)-1H-1,2,4-triazol-1-yl)-N-((2,4-dimethylpyrimidin-5-yl)methyl)acrylamide]",< 1000 nM
10,"NC1C2CN(C(=O)/C=C\n3cnc(-c4cc(C(F)(F)F)cc(C(F)(F)F)c4)n3)CC12 (centres unmarked) [Compound 57, (Z)-1-(6-amino-3-azabicyclo[3.1.0]hexan-3-yl)-3-(3-(3,5-bis(trifluoromethyl)phenyl)-1H-1,2,4-triazol-1-yl)prop-2-en-1-one]",< 1000 nM
11,"O=C(/C=C\n1cnc(-c2cc(C(F)(F)F)cc(C(F)(F)F)c2)n1)NC1CCc2ncccc21 (centres unmarked) [Compound 28, (Z)-3-(3-(3,5-bis(trifluoromethyl)phenyl)-1H-1,2,4-triazol-1-yl)-N-(6,7-dihydro-5H-cyclopenta[b]pyridin-5-yl)acrylamide]",1000 to 10000 nM
12,"O=C(/C=C\n1cnc(-c2cc(C(F)(F)F)cc(C(F)(F)F)c2)n1)N1CC(c2ccccn2)C1 [Compound 24, (Z)-3-(3-(3,5-bis(trifluoromethyl)phenyl)-1H-1,2,4-triazol-1-yl)-1-(3-(pyridin-2-yl)azetidin-1-yl)prop-2-en-1-one]",< 1000 nM
13,"O=C(/C=C\n1cnc(-c2cc(C(F)(F)F)cc(C(F)(F)F)c2)n1)N1CC(O)C1 [Compound 53, (Z)-3-(3-(3,5-bis(trifluoromethyl)phenyl)-1H-1,2,4-triazol-1-yl)-1-(3-hydroxyazetidine-1-yl)prop-2-en-1-one]",< 1000 nM
14,"CN(Cc1cnco1)C(=O)/C=C\n1cnc(-c2cc(C(F)(F)F)cc(C(F)(F)F)c2)n1 [Compound 22, (Z)-3-(3-(3,5-bis(trifluoromethyl)phenyl)-1H-1,2,4-triazol-1-yl)-N-methyl-N-(oxazol-5-ylmethyl)acrylamide]",1000 to 10000 nM
15,"O=C(/C=C\n1cnc(-c2cc(O)cc(C(F)(F)F)c2)n1)N1CC(F)(F)C1 [Example 3, (Z)-1-(3,3-difluoroazetidin-1-yl)-3-(3-(3-hydroxy-5-(trifluoromethyl)phenyl)-1H-1,2,4-triazol-1-yl)prop-2-en-1-one]",< 1000 nM
16,"O=C1CC(c2cc(C(F)(F)F)cc(C(F)(F)F)c2)CN1/C=C/C(=O)N1CC(F)(F)C1 (centres unmarked) [Compound 44, (E)-4-(3,5-bis(trifluoromethyl)phenyl)-1-(3-(3,3-difluoroazetidin-1-yl)-3-oxoprop-1-enyl)pyrrolidin-2-one]",> 10000 nM
17,"CN1CCC(CNC(=O)/C=C\n2cnc(-c3cc(C(F)(F)F)cc(C(F)(F)F)c3)n2)CC1 [Compound 26, (Z)-3-(3-(3,5-bis(trifluoromethyl)phenyl)-1H-1,2,4-triazol-1-yl)-N-((1-methylpiperidin-4-yl)methyl)acrylamide]",< 1000 nM
18,"CN1CCC(CNC(=O)/C=C\n2cnc(-c3cc(C(F)(F)F)cc(C(F)(F)F)c3)n2)C1 (centres unmarked) [Compound 30, (Z)-3-(3-(3,5-bis(trifluoromethyl)phenyl)-1H-1,2,4-triazol-1-yl)-N-((1-methylpyrrolidin-3-yl)methyl)acrylamide]",< 1000 nM
19,"CC(NC(=O)/C=C\n1cnc(-c2cc(C(F)(F)F)cc(C(F)(F)F)c2)n1)c1cnccn1 (centres unmarked) [Compound 29, (Z)-3-(3-(3,5-bis(trifluoromethyl)phenyl)-1H-1,2,4-triazol-1-yl)-N-(1-(pyrazin-2-yl)ethyl)acrylamide]",1000 to 10000 nM
20,"O=C(/C=C\N1CCC(c2cc(C(F)(F)F)cc(C(F)(F)F)c2)C1)N1CC(F)(F)C1 (centres unmarked) [Compound 43, (Z)-3-(3-(3,5-bis(trifluoromethyl)phenyl)pyrrolidin-1-yl)-1-(3,3-difluoroazetidin-1-yl)prop-2-en-1-one]",> 10000 nM
21,"COC(=O)C1(F)CN(C(=O)/C=C\n2cnc(-c3cc(C(F)(F)F)cc(C(F)(F)F)c3)n2)C1 [Compound 61, (Z)-methyl 1-(3-(3-(3,5-bis(trifluoromethyl)phenyl)-1H-1,2,4-triazol-1-yl)acryloyl)-3-fluoroazetidine-3-carboxylate]",< 1000 nM
22,"O=C1CC(c2cc(C(F)(F)F)cc(C(F)(F)F)c2)CN1/C=C\C(=O)N1CC(F)(F)C1 (centres unmarked) [Compound 64, (Z)-4-(3,5-bis(trifluoromethyl)phenyl)-1-(3-(3,3-difluoroazetidin-1-yl)-3-oxoprop-1-enyl)pyrrolidin-2-one]",> 10000 nM
23,"O=C(O)C1CN(C(=O)/C=C\n2cnc(-c3cc(C(F)(F)F)cc(C(F)(F)F)c3)n2)C1 [Compound 55, (Z)-1-(3-(3-(3,5-bis(trifluoromethyl)phenyl)-1H-1,2,4-triazol-1-yl)acryloyl)azetidine-3-carboxylic acid]",1000 to 10000 nM
24,"O=C(/C=C\n1cnc(-c2cc(C(F)(F)F)cc(C(F)(F)F)c2)c1)N1CC(F)(F)C1 [Compound 16, (Z)-3-(4-(3,5-bis(trifluoromethyl)phenyl)-1H-imidazol-1-yl)-1-(3,3-difluoroazetidin-1-yl)prop-2-en-1-one]",< 1000 nM
25,"O=C(/C=C\n1cnc(-c2cc(C(F)(F)F)cc(C(F)(F)F)c2)n1)N1CCC2(CNC2)C1 [Compound 58, (Z)-3-(3-(3,5-bis(trifluoromethyl)phenyl)-1H-1,2,4-triazol-1-yl)-1-(2,6-diazaspiro[3.4]octan-6-yl)prop-2-en-1-one 2,2,2-trifluoroacetate]",< 1000 nM
26,"O=C(/C=C\n1ccc(-c2cc(C(F)(F)F)cc(C(F)(F)F)c2)n1)N1CC(F)(F)C1 [Compound 35, (Z)-3-(3-(3,5-bis(trifluoromethyl)phenyl)-1H-pyrazol-1-yl)-1-(3,3-difluoroazetidin-1-yl)prop-2-en-1-one]",< 1000 nM
27,"O=C(/C=C\n1cnc(-c2cc(C(F)(F)F)cc(C(F)(F)F)c2)n1)N1CCC(F)(F)CC1 [Example 6, (Z)-3-(3-(3,5-bis(trifluoromethyl)phenyl)-1H-1,2,4-triazol-1-yl)-1-(4,4-difluoropiperidin-1-yl)prop-2-en-1-one]",1000 to 10000 nM
28,"O=C(/C=C\n1cnc(-c2cc(C(F)(F)F)c(Cl)c(C(F)(F)F)c2)n1)N1CC(F)(F)C1 [Compound 59, (Z)-3-(3-(4-chloro-3,5-bis(trifluoromethyl)phenyl)-1H-1,2,4-triazol-1-yl)-1-(3,3-difluoroazetidin-1-yl)prop-2-en-1-one]",< 1000 nM
29,"Cc1ncc(CNC(=O)/C=C\n2cnc(-c3cc(C(F)(F)F)cc(C(F)(F)F)c3)n2)cn1 [Compound 13, (Z)-3-(3-(3,5-bis(trifluoromethyl)phenyl)-1H-1,2,4-triazol-1-yl)-N-((2-methylpyrimidin-5-yl)methyl)acrylamide]",1000 to 10000 nM
